From PMC5597618, “Identification and characterization of the novel reversible and selective cathepsin X inhibitors” (Scientific Reports, 2017) come the findings set out here.

Data set [1] relates to PC-3 cells. In words: Cytotoxicity assay (MTS) in PC-3 cells. Type of data set: cell-based, human. Conditions: up to 10 μM, 24 and 48 hours. On the procedure: (§1) Human prostate cancer cell line PC-3 cells (obtained from ATCC, Manassas, USA; ATCC Number: CRL-1435) were cultured in F-12 (Gibco) and Advanced DMEM (Gibco) (1:1) with 10% FBS, 1% penicillin/streptomycin and 1% L-glutamine. Rat pheochromocytoma PC-12 cells (obtained from ATCC, Manassas, USA; ATCC Number: CRL-1721) were cultured in Advanced DMEM (Gibco) with 5% FBS, 10% heat-inactivated horse serum, 1% penicillin/streptomycin and 1% L-glutamine.
(§2) 6.5 × 10^4 PC-3 cells/ml were seeded in a 96-well plate. PC-12 cells were seeded on poly-L-lysine (Sigma) coated plates in serum-free medium at a concentration of 4 × 10^4/well. Cells were treated with various concentrations of compounds (1, 2.5, 5 and 10 μM) for 24 or 48 hours. Cytotoxicity was determined with MTS reagent (CellTiter 96 Aqueous One Solution Cell Proliferation Assay, Promega) and A492 measured after 1 hour.

Data set [2] concerns PC-3 cells. Kind of data set: Real time cell migration assay (xCELLigence, CIM plates). In kind it is cell-based, human. On the procedure:
as §1
Cell migration assay was performed on a Real-Time Cell Analyzer Dual Plate (RTCA DP) Instrument, xCELLigence System (ACEA Biosciences). CIM plates were coated with fibronectin (10 μg/ml, BD Biosciences) on the down and upper side of the microporous PET membrane for 30 min at room temperature and 2 hours at 37 °C, respectively. Excess fibronectin was removed and wells washed with phosphate buffer saline (PBS). Compounds (10 μM) were added to the complete media (lower chambers) or serum-free media (upper chambers). 0.1% DMSO was used as a control. 2 × 10^4 cells were plated per well. In additional experimental setting, inhibitors were added only to the upper chambers 3 hours after experiment started in order to measure their impact only on the cell migration and not the adhesion. Impedance data, reported as cell index, were measured continuously every 15 min for 72 hours and then analyzed with the RTCA Software (ACEA Biosciences, Inc.). Results are normalized to cells treated with DMSO.

In a further data set the test system is PC-12 cells. Kind of data set: Cytotoxicity assay (MTS) in PC-12 cells. Type of data set: cell-based, rat. Conditions: up to 10 μM, 24 and 48 hours. On the procedure: as §1, §2
The next data set deals with cathepsin X (Homo sapiens, UniProt Q9UBR2). Kind of data set: Labeling of cathepsin X with activity-based probe DCG-04 in PC-3 cell lysate. Conditions: 10 µM inhibitor. Details: endogenous in cells; host or cells: PC-3. In kind it is biochemical. Here is the method: Evaluation of cellular uptake and retention of compound 22: sample preparation and LC- […]
Sequence of cathepsin X (Q9UBR2 62-303): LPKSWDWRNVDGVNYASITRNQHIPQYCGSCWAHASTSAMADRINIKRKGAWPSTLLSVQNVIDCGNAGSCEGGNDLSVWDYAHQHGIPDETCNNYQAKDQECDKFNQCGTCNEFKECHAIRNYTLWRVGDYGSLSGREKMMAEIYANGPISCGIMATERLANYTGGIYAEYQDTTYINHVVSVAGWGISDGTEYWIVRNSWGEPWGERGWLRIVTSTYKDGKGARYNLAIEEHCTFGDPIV
PC-3 cells were treated for 1 hour with compound 22 (50 µM). Cells were washed twice with cold PBS, trypsinized, washed once more and centrifuged. A pellet of cells was resuspended in 200 µL of PBS (or in 200 µL of PBS containing 5µM inhibitor for standard addition) and transferred to 1.5 mL Eppendorf vials prefilled with 0.1 mm and 0.5 mm glass beads (NextAdvance, USA). All cell samples were then homogenized with a BulletBlender (NextAdvance, USA) for 5 min at speed setting »6«. […]
(2.30;50), (2.50;50), (2.6;5). […] ESI Jetstream parameters were set as follows: drying gas temperature 275 °C, drying gas flow 5 L/min, nebulizer 45 psi, sheath gas temperature 320 °C, sheath gas flow 11 L/min, capillary entrance voltage 4000 V and nozzle voltage 1000 V. Quadrupoles Q1 and Q3 were set at the widest resolution (2.5 amu) and multiple reaction monitoring (MRM) mass transitions used for the quantification of recorded traces are presented in Supplementary Table S4. […]
PC-3 cell lysate was diluted in cathepsin X assay buffer (1 mg/ml protein concentration). […] After blocking with 5% skimmed milk powder in TBS with 0.05% Tween 20, membrane was incubated with streptavidin-HRP (1:5000; Jackson ImmunoResearch) for 1 hour and proteins were detected with […]

By inhibition is commonly meant the relative decrease from the control value, in per cent.

`CC(C)n1cnnc1SCC(=O)c1ccc2c(c1)OCCO2` [Compound 22, 1-(2,3-Dihydrobenzo[b][1,4]dioxin-6-yl)-2-((4-isopropyl-4H-1,2,4-triazol-3-yl)thio)ethan-1-one]: the “cytotoxicity to PC-3 cells” value in the data set on PC-3 cells [1] is listed as “not cytotoxic”. Moreover, the inhibition at 10 µM with PC-3 cells [2] (Homo sapiens, PC-3, 10 μM, compound in upper and bottom compartments, vs DMSO) was 15 to 30%. In addition, in the data set on PC-3 cells [2] (compound only in upper compartment, added 3 hours after seeding), the “inhibition of PC-3 cell migration, alternative setting excluding adhesion” value is given as “inhibits migration”. Besides, the “cytotoxicity to PC-12 cells” value with PC-12 cells is “not cytotoxic”. For the same compound, at cathepsin X, the “delay of cathepsin X labeling by DCG-04” value is “approximately 20 minutes”.
